Data reported in patent US10538487B2, “Sulfonylureas and related compounds and use of same” (priority 2015, dated 2020).
Read-outs that look alike come from different tables or passages of the source.

Test: Single dose pharmacokinetic study in mice (iv 4 mg/Kg, po 20 mg/Kg), plasma concentration post-dosing
Format: in vivo, mouse
Conditions: male, C57BL/6, mouse, plasma, mouse; for concentration at 5 min: 5 min post dosing; for concentration at 0.25 h: 0.250 h post dosing; for concentration at 0.5 h: 0.500 h post dosing; for concentration at 1 h: 1.00 h post dosing; for concentration at 2 h: 2.00 h post dosing; for concentration at 4 h: 4.00 h post dosing; for concentration at 8 h: 8.00 h post dosing; for concentration at 24 h: 24.0 h post dosing
Procedure: This is advantageous leading to comparatively lower doses or less frequent administration. The procedure followed was: Male C57BL/6 mice were used at 7-9 weeks age with 3 animals per group. Mice were dosed with test compound using single intravenous bolus or oral gavage. Blood samples were taken via submandibular or saphenous vein for analysis of plasma concentrations of compound by LC-MS/MS at the following timepoints: IV (3 mice): 0.083, 0.25, 0.5, 1, 2, 4, 8 and 24 hours post dosing, PO (3 mice): 0.25, 0.5, 1, 2, 4, 8 and 24 hours post dosing. LC-MS/MS method for the quantitative determination of test compound in corresponding biological matrix was developed. […] The results are shown graphically in FIGS. 1A to 1C (MCC950) and FIGS. 2A to 2C (MCC7840).

SMILES: CC(C)(O)c1coc(S(=O)(=O)NC(=O)Nc2c3c(cc4c2CCC4)CCC3)c1 [MCC_000950_016, N-((1,2,3,5,6,7-hexahydro-s-indacen-4-yl)carbamoyl)-4-(2-hydroxypropan-2-yl)furan-2-sulfonamide, reference compound]
- concentration at 5 min (iv, 4 mg/kg, IV 4 mg/Kg, individual mice M1-M3, read-out: Plasma concentration, IV Time 0.0833 h): 20200 ng/mL
- concentration at 5 min (iv, 4 mg/kg, IV 4 mg/Kg, mean of 3 mice, read-out: Plasma concentration, IV Time 0.0833 h, Mean IV): 18400 ng/mL
- concentration at 0.25 h (iv, 4 mg/kg, IV 4 mg/Kg, individual mice M1-M3, read-out: Plasma concentration, IV Time 0.250 h): 16000 ng/mL
- concentration at 0.25 h (iv, 4 mg/kg, IV 4 mg/Kg, mean of 3 mice, read-out: Plasma concentration, IV Time 0.250 h, Mean IV): 13000 ng/mL
- concentration at 0.5 h (iv, 4 mg/kg, IV 4 mg/Kg, individual mice M1-M3, read-out: Plasma concentration, IV Time 0.500 h): 11700 ng/mL
- concentration at 0.5 h (iv, 4 mg/kg, IV 4 mg/Kg, mean of 3 mice, read-out: Plasma concentration, IV Time 0.500 h, Mean IV): 10500 ng/mL
- concentration at 1 h (iv, 4 mg/kg, IV 4 mg/Kg, individual mice M1-M3, read-out: Plasma concentration, IV Time 1.00 h): 9340 ng/mL
- concentration at 1 h (iv, 4 mg/kg, IV 4 mg/Kg, mean of 3 mice, read-out: Plasma concentration, IV Time 1.00 h, Mean IV): 8430 ng/mL
- concentration at 2 h (iv, 4 mg/kg, IV 4 mg/Kg, individual mice M1-M3, read-out: Plasma concentration, IV Time 2.00 h): 7410 ng/mL
- concentration at 2 h (iv, 4 mg/kg, IV 4 mg/Kg, mean of 3 mice, read-out: Plasma concentration, IV Time 2.00 h, Mean IV): 6140 ng/mL
- concentration at 4 h (iv, 4 mg/kg, IV 4 mg/Kg, individual mice M1-M3, read-out: Plasma concentration, IV Time 4.00 h): 3280 ng/mL
- concentration at 4 h (iv, 4 mg/kg, IV 4 mg/Kg, mean of 3 mice, read-out: Plasma concentration, IV Time 4.00 h, Mean IV): 2600 ng/mL
- concentration at 8 h (iv, 4 mg/kg, IV 4 mg/Kg, individual mice M1-M3, read-out: Plasma concentration, IV Time 8.00 h): 905 ng/mL
- concentration at 8 h (iv, 4 mg/kg, IV 4 mg/Kg, mean of 3 mice, read-out: Plasma concentration, IV Time 8.00 h, Mean IV): 743 ng/mL
- concentration at 24 h (iv, 4 mg/kg, IV 4 mg/Kg, individual mice M1-M3, read-out: Plasma concentration, IV Time 24.0 h): 3.29 ng/mL
- concentration at 24 h (iv, 4 mg/kg, IV 4 mg/Kg, mean of 3 mice, read-out: Plasma concentration, IV Time 24.0 h, Mean IV): 2.65 ng/mL
- AUC0-inf (iv, 4 mg/kg, IV 4 mg/Kg, individual mice M1-M3, read-out: AUC0-inf): 41900 ng·h/mL
- AUC(0-t) (iv, 4 mg/kg, IV 4 mg/Kg, individual mice M1-M3, read-out: AUC0-last): 41900 ng·h/mL
- C0 (iv, 4 mg/kg, IV 4 mg/Kg, individual mice M1-M3, read-out: C0): 22700 ng/mL
- clearance (iv, 4 mg/kg, IV 4 mg/Kg, individual mice M1-M3, read-out: Cl): 1.59 mL/min/kg
- MRT inf (iv, 4 mg/kg, IV 4 mg/Kg, individual mice M1-M3, read-out: MRT0-inf): 2.78 h
- MRT last (iv, 4 mg/kg, IV 4 mg/Kg, individual mice M1-M3, read-out: MRT0-last): 2.77 h
- half-life (iv, 4 mg/kg, IV 4 mg/Kg, individual mice M1-M3, read-out: T1/2 (converted)): 120 min
- Vd (iv, 4 mg/kg, IV 4 mg/Kg, individual mice M1-M3, read-out: Vdss): 0.265 L/kg
- AUC0-inf (iv, 4 mg/kg, IV 4 mg/Kg, mean of 3 mice, read-out: AUC0-inf, Mean IV): 35400 ng·h/mL
- AUC(0-t) (iv, 4 mg/kg, IV 4 mg/Kg, mean of 3 mice, read-out: AUC0-last, Mean IV): 35400 ng·h/mL
- clearance (iv, 4 mg/kg, IV 4 mg/Kg, mean of 3 mice, read-out: Cl, Mean IV): 1.92 mL/min/kg
- MRT inf (iv, 4 mg/kg, IV 4 mg/Kg, mean of 3 mice, read-out: MRT0-inf, Mean IV): 2.67 h
- MRT last (iv, 4 mg/kg, IV 4 mg/Kg, mean of 3 mice, read-out: MRT0-last, Mean IV): 2.67 h
- half-life (iv, 4 mg/kg, IV 4 mg/Kg, mean of 3 mice, read-out: T1/2, Mean IV (converted)): 120 min
- Vd (iv, 4 mg/kg, IV 4 mg/Kg, mean of 3 mice, read-out: Vdss, Mean IV): 0.306 L/kg
- concentration at 0.25 h (po, 20 mg/kg, PO 20 mg/Kg, mean of 3 mice, read-out: Plasma concentration, PO Time 0.250 h, Mean PO): 33300 ng/mL
- concentration at 0.5 h (po, 20 mg/kg, PO 20 mg/Kg, individual mice M4-M6, read-out: Plasma concentration, PO Time 0.500 h): 20400 ng/mL
- concentration at 0.5 h (po, 20 mg/kg, PO 20 mg/Kg, mean of 3 mice, read-out: Plasma concentration, PO Time 0.500 h, Mean PO): 30100 ng/mL
- concentration at 1 h (po, 20 mg/kg, PO 20 mg/Kg, individual mice M4-M6, read-out: Plasma concentration, PO Time 1.00 h): 19300 ng/mL
- concentration at 1 h (po, 20 mg/kg, PO 20 mg/Kg, mean of 3 mice, read-out: Plasma concentration, PO Time 1.00 h, Mean PO): 30000 ng/mL
- concentration at 2 h (po, 20 mg/kg, PO 20 mg/Kg, individual mice M4-M6, read-out: Plasma concentration, PO Time 2.00 h): 18500 ng/mL
- concentration at 2 h (po, 20 mg/kg, PO 20 mg/Kg, mean of 3 mice, read-out: Plasma concentration, PO Time 2.00 h, Mean PO): 22400 ng/mL
- concentration at 4 h (po, 20 mg/kg, PO 20 mg/Kg, individual mice M4-M6, read-out: Plasma concentration, PO Time 4.00 h): 10200 ng/mL
- concentration at 4 h (po, 20 mg/kg, PO 20 mg/Kg, mean of 3 mice, read-out: Plasma concentration, PO Time 4.00 h, Mean PO): 11200 ng/mL
- concentration at 8 h (po, 20 mg/kg, PO 20 mg/Kg, individual mice M4-M6, read-out: Plasma concentration, PO Time 8.00 h): 4330 ng/mL
- concentration at 8 h (po, 20 mg/kg, PO 20 mg/Kg, mean of 3 mice, read-out: Plasma concentration, PO Time 8.00 h, Mean PO): 3790 ng/mL
- concentration at 24 h (po, 20 mg/kg, PO 20 mg/Kg, mean of 3 mice, read-out: Plasma concentration, PO Time 24.0 h, Mean PO): 39.1 ng/mL
- AUC0-inf (po, 20 mg/kg, PO 20 mg/Kg, individual mice M4-M6, read-out: AUC0-inf): 108000 ng·h/mL
- AUC(0-t) (po, 20 mg/kg, PO 20 mg/Kg, individual mice M4-M6, read-out: AUC0-last): 108000 ng·h/mL
- MRT inf (po, 20 mg/kg, PO 20 mg/Kg, individual mice M4-M6, read-out: MRT0-inf): 4.31 h
- MRT last (po, 20 mg/kg, PO 20 mg/Kg, individual mice M4-M6, read-out: MRT0-last): 4.26 h
- half-life (po, 20 mg/kg, PO 20 mg/Kg, individual mice M4-M6, read-out: T1/2 (converted)): 160 min
- Tmax (po, 20 mg/kg, PO 20 mg/Kg, individual mice M4-M6, read-out: Tmax): 15 min
